Data on one compound can be found in US20120258944A1, “ANTIOXIDANTS FOR USE IN THERAPY” (priority 2009, published 2012).

Data set [1] deals with THP-1 cells. Put plainly: Chemiluminescence (Diogenes), ROS production in PMA stimulated THP-1 cells. Format: cell-based, human. The text has this: We investigated the capacity of the material to quench ROS produced by freshly isolated human neutrophils or THP-1 cells (human acute monocytic leukemia cell line) stimulated with PMA (Phorbol Myristate Acetate). The antioxidant capacity of selenide 1 was again compared to those of Trolox, a water soluble derivative of vitamin E, which is commonly used in biological and biochemical applications to reduce oxidative stress or damage.
The generation of oxygen free radicals over time from macrophages (THP-1) was monitored for 180 minutes in 96-well white optiplates (Greiner) using a using a TECAN reader and Diogenes chemiluminescence kit (National Diagnostics). Approximately 200 000 THP-1 cells diluted in HBSS containing different concentrations of the antioxidants 1 and Trolox were added per well to a 96 well plate together with the Diogenes reagent 20 v/% (following the manufacturers recommendations) and 40 micro-M Phorbol Myristate Acetate (PMA). Luminescence intensity was read every 6 min. The measurements were commonly performed on quadruplicate samples

The test system of data set [2] is human umbilical vein endothelial cells (HUVEC). The data set can be described thus: XTT in vitro toxicology test in human umbilical vein endothelial cells. Type of data set: cell-based. The note with it: human. How it is done: As a negative control, cells incubated with medium containing 0.5% DMSO (corresponding to the highest DMSO concentration above) was used. As a positive control, cells were incubated in the presence of 20% EtOH.
After the incubation with the compounds, the wells were washed with PBS to remove substances which could interfere with the assay. 40 μl of fresh medium 200 without phenol red was added together with 10 μl XTT substance (according to the manufacturer's instructions). The plates were incubated for 8 hrs and the colour development was monitored by measuring the absorbance at 450 nm.
After incubation, the number of viable cells was assessed by observing the amount of metabolized XTT (2,3-bis[2-methoxy-4-nitro-5-sulphophenyl]-2H-tetrazolium-5-carboxyanilide inner salt).
On the technique in general: Tetrazolium assays rely on reduction of a dye to a coloured formazan, in cell work by metabolically active cells.

Data set [3] can be described thus: ABTS radical cation assay (TEAC) in aqueous PBS buffer. Particulars: 6.08 micro-M. How it is done:
In order to investigate its aqueous phase performance, we thought that it would be interesting to determine its Trolox Equivalent Antioxidant Capacity (TEAC) (Free Rad. Biol. Med. 1999, 26, 1231-1237) which has been used to quantify the antioxidant activity of biological fluids, extracts and pure compounds. The TEAC value is defined as the concentration of Trolox which has an equivalent antioxidant potential as a 1 mM solution of the compound under investigation (Free Rad. Biol. Med. 1996, 20, 933-956).
A 2,2′-azinobis(3-ethylbenzothiazoline-6 sulphonic acid radical cation (ABTS•+) assay was used to determine relative TEAC values. To a preformed solution of ABTS•+ in PBS buffer, pH 7.4, with an absorbance slightly above 0.7 were added various amounts (3-30 microM) of organoselenium compound 1, Trolox, sodium ascorbate and N-acetylcysteine. The absorbance at 734 inn was recorded immediately after mixing and then every minute for the next 8 minutes.
Antioxidant activity as determined by the capacity of the antioxidant to decolorize the ABTS^+ radical cation was determined essentially as described in the literature (Acc. Chem. Res. 1986, 19, 194-201). […] In a typical experiment, the antioxidant (1.52 micro-L of a 3.00 mM solution in MeOH or water; final concentration=6.08 micro-M) was syringed into 0.750 mL of the ABTS^+ radical cation solution. After initial mixing, the absorbance was recorded every minute for the next eight minutes.

The conditions of data set [4]: two-phase model, N-acetylcysteine in the aqueous phase; cited from earlier work.
Data set [5] relates to human Neutrophils and human PBMCs. Put plainly: Intracellular ROS, luminol luminescence with SOD and catalase, PMA or fMLF stimulated cells. Type of data set: cell-based. The note with it: PMA or fMLF 30 ng/ml; compounds 120, 60, 30 microM; FIG. 5-8. Here is the method:
Validation was performed by stimulating cells with PMA and fMLF. When treated with the antioxidants, altered level of ROS production from the cells was measured using luminometry. Both intracellular and extracellular effect on ROS on the cells was analyzed using isoluminol (extracellular) and luminol (intracellular when co-administered with SOD and catalase) (Dahlgren et al. “Respiratory burst in human neutrophils”, Journal of Immunological Methods 232 1999; 3-14).
The luminol reagent buffer is made of HBSS buffer (with Ca^2+), luminol and SOD/Catalase.
1) Add 25 microL of antioxidants to assay plate to get proper concentrations in a total reaction volume of 100 micro-L. 2) Add 25 microL of PMA (120 ng/ml) and fMLF (120 ng/ml) to assay plate to get concentration of 30 ng/ml in a total reaction volume of 100 microL. 3) Add 50 microL of cell suspension (2 million cells/ml) to each well. Immediately after addition of cell suspension initiate luminescence measurement; the reaction starts at once when the cells are added to the assay plate. Measurement points are taken at 1-minute intervals for 25 minutes. Data is presented as AUC (Area Under Curve) by a summary of all collected measurements for each well.
FIG. 5: Intracellular ROS analyzed by Luminol (intracellular ROS) induced luminescence in human Neutrophils. ROS induced with PMA (30 ng/ml) with 200, 100 or 0 microM NAC. Concentrations of compounds 120, 60, 30 and 0 microM final concentrations.
FIG. 6: Intracellular ROS analyzed by Luminol (intracellular ROS) induced luminescence in human Neutrophils. ROS induced with fMLF (30 ng/ml) with 200, 100 or 0 microM NAC. Concentrations of compounds 120, 60, 30 and 0 microM final concentrations.
FIG. 7: Intracellular ROS analyzed by Luminol (intracellular ROS) induced luminescence in human PBMCs. ROS induced with PMA (30 ng/ml) with 200, 100 or 0 microM NAC. Concentrations of compounds 120, 60, 30 and 0 microM final concentrations.
FIG. 8: Intracellular ROS analyzed by Luminol (intracellular ROS) induced luminescence in human PBMCs. […]

Regarding `CC1Cc2cc(O)ccc2[Se]1` (stereo not shown) [Compound 1], in data set [1] (1, 10 and 20 micro-M, FIG. 24), the “effect on ROS production in THP-1” value was “clear, dose dependent, quenching/inhibiting effect”. Further, in data set [1] (20 micro-M each), the “quenching of ROS from THP-1 compared with Trolox” value is “considerably more effective than Trolox”. Besides, the “relative toxicity among the compounds” value in data set [2] is “far less toxic than compounds 2 and 3”. The values for the toxic concentration in data set [2] (24 h), in data set [2] (48 h) and in data set [2] (72 h) were 500 µM, 500 µM and 200 µM, respectively. The compound further registered a TEAC value in data set [3] (PBS buffer pH 7.4, after 5 min) of 1.6. In addition, the “number of ABTS radicals quenched by each molecule of the antioxidant” value in data set [3] (PBS buffer pH 7.4, versus reference antioxidants) is “clearly outperformed both sodium ascorbate and Trolox”. Besides, the “Inhibited Rate of Linoleic Acid Peroxidation (Rinh)” value in data set [4] is 69 µM/h. In addition, in data set [5], the “antioxidative effect on intracellular ROS” value is “strong antioxidative effect”.
